Columns and labels:
Assay type in all cases: in vivo
[1] = system: Housefly [Musca domestica]; experiment: Housefly insecticidal test; conditions: μg per 25 female flies; mortality after 48 hours
Method in brief: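 Dry-film exposure of 25 female houseflies per cage, 48 h; LC50 as μg per 25 flies.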

[2] = system: Tobacco Budworm [Heliothis virescens (Fabricius)] eggs; experiment: Tobacco budworm egg test; conditions: 2-day old eggs, percent in solution
Method in brief: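 Mortality of dipped eggs served as read-out, recorded after untreated controls hatched and began feeding. Treatments used acetone solutions from 0.1% downward, with eggs incubated at 78° F; LC50 is expressed as percent of compound in the solution.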

[3] = system: Cabbage Looper [Trichoplusia ni (Hubner)]; experiment: Cabbage looper insecticidal test; conditions: second-instar larvae, percent in solution; 3-5 days
Method in brief: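 Steps: dilute compound in 50-50 acetone-water from 0.1% downward; immerse cotyledon pieces 2-3 s and dry; place in humid petri dishes with five second-instar larvae; record mortality at 3-5 days. Dosage-mortality curves yield LC50 as percent in solution.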

[4] = system: Maize weevil [Sitophilus Zeamais (Motschulsky)]; experiment: Maize weevil insecticidal test; conditions: adult weevils, percent in solution; 48 hours
Protocol: The compounds in Tables 1 and 2 above were tested for insecticidal activity using the following testing procedures. LC50 values, based on the results of these tests and calculated according to dosage-mortality curves, are expressed in Table 3.
Maize weevil [Sitophilus Zeamais (Motschulsky)]:
Test compounds were diluted in a 50:50 acetone:water solution. Four corn seeds [Zea mays (L.)] which had been immersed in test solutions for 2-3 seconds and allowed to dry were placed in containers together with 10 adult weevils. The containers were covered and kept at a temperature of about 25° C. Mortality was recorded after 48 hours. Test concentrations ranged from 0.01% down to that at which 50% mortalilty occurred. The LC50 values are expressed below in Table 3 under the heading "MW" in terms of percent of the test compound in solution.

Structure (SMILES)	LC50, HF [1]	LC50, TBW, E (TBW-E) [2]	LC50, CL [3]	LC50, MW [4]
Clc1ccc(N=C(OCc2cccc(Oc3ccccc3)c2)C2CCC2)cc1 [Compound 8]	50 µg	> 0.1%	0.01%	> 0.01%
CC(C)(C)C(=Nc1cccc(C(F)(F)F)c1)OCc1cccc(Oc2ccccc2)c1 [Compound 88]	> 100 µg	> 0.1%	0.018%	> 0.01%
Fc1ccc(Oc2cccc(COC(=Nc3ccc(F)c(Cl)c3)C3CC3)c2)cc1 [Compound 116]	15 µg	0.05%	0.00025%	> 0.01%
CCc1ccc(N=C(OCc2cccc(Oc3ccccc3)c2)C(C)(C)C)cc1 [Compound 163]	> 100 µg	> 0.1%	0.004%	> 0.01%
CC(C)C(=Nc1ccc(F)c(Cl)c1)OCc1cccc(Oc2cccc(Cl)c2)c1 [Compound 203]	43 µg	0.06%	0.0025%	> 0.01%
CC(C)C(=Nc1cc(F)c(Cl)cc1Cl)OCc1ccc(F)c(Oc2ccc(F)cc2)c1 [Compound 292]	41 µg	0.05%	0.00075%	> 0.01%
Fc1ccc(Oc2cccc(COC(=Nc3cccc(C(F)(F)F)c3)C3CC3)c2)cc1 [Compound 294]	> 100 µg	> 0.1%	0.017%	> 0.01%
CC(C)C(=Nc1ccc(F)c(Br)c1)OCc1ccc(F)c(Oc2ccccc2)c1 [Compound 299]	8 µg	0.017%	0.0005%	> 0.01%
Fc1c(F)c(F)c(COC(=Nc2cccc(Cl)c2Cl)C(Cl)Cl)c(F)c1F [Compound 454]	> 100 µg	> 0.1%	0.03%	
Cc1c(COC(=Nc2ccc(Cl)cc2)C(C)C)cccc1-c1ccccc1 [Compound 455]	> 100 µg	> 0.1%	0.0025%	
Cc1c(COC(=Nc2ccc(F)cc2)C(C)C)cccc1-c1ccccc1 [Compound 458]	100 µg	> 0.05%	0.007%	
CC(C)C(=Nc1ccc2c(c1)OCO2)OCc1c(F)c(F)c(F)c(F)c1F [Compound 464]	> 100 µg	> 0.1%	0.08%	
CC(C)C(=Nc1ccc2c(c1)OCO2)OCc1cccc(Oc2ccccc2)n1 [Compound 467]	6 µg	0.04%	0.003%	
CC(C)C(=Nc1ccc2c(c1)OC(C)(C)O2)OCc1cccc(Oc2ccc(Cl)cc2)n1 [Compound 468]	50 µg	> 0.1%	> 0.1%	
CC(C)C(=Nc1cccc(C(F)(F)F)c1)OCc1cccc(Oc2ccncc2)c1 [Compound 469]	40 µg	> 0.1%	0.02%	
CC(C)C(=Nc1ccc(F)c(Cl)c1)OCc1cccc(Oc2ccncc2)c1 [Compound 470]	25 µg	> 0.1%	0.02%	
CC(C)C(=Nc1ccc(F)c(Cl)c1)OCc1cccc(OCc2ccccc2)c1 [Compound 472]	> 100 µg	> 0.1%	0.0025%	
CC(C)C(=Nc1ccc(F)c(Cl)c1)OCc1ccc(F)c(Br)c1 [Compound 473]	> 100 µg	> 0.1%	0.025%	

From US5070210A, “Novel ketenimines as intermediates for insecticides” (ICI Americas Inc., priority 1990, dated 1991)
